Laboratory results published in patent publication EP0385106A1, “Sustained release bolus effective for the prolonged prevention, treatment or control of nematode, acarid and endo- and ectoparasitic infestations of ruminants” (AMERICAN CYANAMID COMPANY, priority 1989, dated 1990).

What was measured:
Type in all cases: in vivo
nematode eggs = experiment: Nematode eggs per gram of feces in pastured cattle (Example 14)
Method: (§1) One half boluses (weight 25.5 to 27.0 g) and are administered to cattle on pasture. […] In this test pastured animals are randomly divided into groups of 5 animals per group and ear-tagged. The feces of all animals is examined prior to the tests in order to determine the average number of nematode eggs per gram of feces of the test animals. […] The test is begun with all animals receiving one half of a bolus weighing about 25 to 27 grams. […] The animals are then placed in individual paddocks and examined at intervals during the holding period up to 120 days. […]

Cooperia = experiment: Per cent control of nematodes in cattle (Example 14); settings: dewormed 57 days earlier
Method: as §1

Haemonchus = experiment: as above; settings: dewormed 57 days earlier
Method: as §1

Oesophlogostonum = experiment: as above; settings: dewormed 57 days earlier
Method: as §1

Ostertagia = experiment: as above; settings: dewormed 57 days earlier
Method: as §1

[1] = Weight gains of cattle (Example 14)
Method: as §1

SMILES: c1ccc([C@H]2CN3CCSC3=N2)cc1 [Levamisole]
- Average number of nematode eggs per gram of feces (nematode eggs; Day 0 (before treatment)): (2850)
- Average number of nematode eggs per gram of feces (nematode eggs; Day 7): 5
- per cent in parentheses beside the egg count (reduction of nematode eggs) (nematode eggs; Day 7): 99.9%
- Average number of nematode eggs per gram of feces (nematode eggs; Day 62 (levamisole group re-treated on day 62)): 755
- Average number of nematode eggs per gram of feces (nematode eggs; Day 119): 146
- Avg. number worms Cooperia (Cooperia): 5937
- Avg. number worms Haemonchus (Haemonchus): 2325
- Avg. number worms Oesophlogostonum (Oesophlogostonum): 117
- Avg. number worms Ostertagia (Ostertagia): 729
- Average weight gains (Kg) from Day 0 ([1]; Day 7): 7 kg
- Average weight gains (Kg) from Day 0 ([1]; Day 62): 0 kg
- Average weight gains (Kg) from Day 0 ([1]; Day 110): 21 kg
